This passage reports IC50 results from patent EP4722231A1, “BIOSYNTHESIS METHOD FOR BROAD-SPECTRUM ANTIVIRAL POLYPEPTIDE” (Shanxi Jinbo Bio-Pharmaceutical Co., Ltd., priority 2023, dated 2025).

The assay relates to SARS-CoV-2 (D614G) pseudovirus. Particulars: 24 h.

For `CC[C@H](C)[C@H](NC(=O)[C@H](C)NC(=O)[C@H](CCC(=O)O)NC(=O)[C@H](CCC(=O)O)NC(=O)[C@H](CC(C)C)NC(=O)[C@H](CCCCN)NC(=O)[C@H](CCCCN)NC(=O)[C@H](CCSC)NC(=O)[C@H](CCC(=O)O)NC(=O)[C@H](Cc1ccc(O)cc1)NC(=O)[C@H](CCC(=O)O)NC(=O)[C@H](CC(C)C)NC(=O)[C@H](CC(=O)O)NC(=O)[C@H](CC(C)C)NC(=O)[C@H](Cc1ccccc1)NC(=O)[C@@H](NC(=O)[C@@H](NC(=O)[C@H](CC(N)=O)NC(=O)[C@@H](NC(=O)[C@H](CCC(N)=O)NC(=O)[C@H](CC(=O)O)NC(=O)[C@H](CC(C)C)NC(=O)[C@H](CO)NC(C)=O)[C@@H](C)CC)C(C)C)[C@@H](C)O)C(=O)N[C@@H](CCCCN)C(=O)N[C@@H](CCCCN)C(=O)N[C@@H](CC(C)C)C(=O)N[C@@H](CCC(=O)O)C(=O)N[C@@H](CCC(=O)O)C(=O)N[C@@H](CO)C(=O)N[C@@H](Cc1ccc(O)cc1)C(=O)N[C@H](C(=O)N[C@@H](CC(=O)O)C(=O)N[C@@H](CC(C)C)C(=O)N[C@@H](CCCCN)C(=O)N[C@@H](CCC(=O)O)C(=O)N[C@@H](CC(C)C)C(N)=O)[C@@H](C)CC` [EK1], the half-maximal inhibitory concentration (IC50) worked out at 308 nM.

A word on the IC50: it is the midpoint of a concentration-inhibition curve. Read a low IC50 as greater potency.
